These results are taken from ChEMBL document CHEMBL1909046, “DrugMatrix in vitro pharmacology data”.

Data set [1] is described as follows: DRUGMATRIX: Phorbol Ester radioligand binding (ligand: [3H] PDBu). Particulars: Not Active = under 50% inhibition at 10 µM. It counts as cell membranes, Mus musculus, ICR, Brain, Membrane.
Data set [2] has as its target C-C chemokine receptor type 5 (Homo sapiens, UniProt P51681). It counts as cell membranes, Membrane. Particulars: hek293. Further: in other assays of this panel Not Active means under 50% inhibition at 10 µM.
Data set [3] deals with Tyrosine-protein kinase Lck (Homo sapiens, UniProt P06239). In words: DRUGMATRIX: Protein Tyrosine Kinase, LCK enzyme inhibition (substrate: Poly(Glu:Tyr)). In kind it is cell-based, Insect cells. To be noted: insect cells; Not Active = under 50% inhibition at 10 µM.
Chain of Tyrosine-protein kinase Lck (P06239 whole entry): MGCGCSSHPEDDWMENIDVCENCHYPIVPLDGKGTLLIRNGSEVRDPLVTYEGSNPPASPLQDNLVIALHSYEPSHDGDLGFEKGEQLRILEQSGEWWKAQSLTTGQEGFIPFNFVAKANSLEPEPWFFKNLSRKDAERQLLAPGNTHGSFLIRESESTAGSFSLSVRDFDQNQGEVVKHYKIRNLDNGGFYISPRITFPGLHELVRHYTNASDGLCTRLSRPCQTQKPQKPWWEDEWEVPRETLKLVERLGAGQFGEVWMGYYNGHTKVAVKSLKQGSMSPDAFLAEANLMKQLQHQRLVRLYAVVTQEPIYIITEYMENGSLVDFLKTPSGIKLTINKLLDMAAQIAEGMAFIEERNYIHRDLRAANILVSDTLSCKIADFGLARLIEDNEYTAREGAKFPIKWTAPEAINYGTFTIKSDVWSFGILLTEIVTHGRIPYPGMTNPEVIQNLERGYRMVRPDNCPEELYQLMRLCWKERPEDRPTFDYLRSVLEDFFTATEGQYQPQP
Data set [4] deals with T1, Alpha-2A adrenergic receptor (Homo sapiens, UniProt P08913).
T1 sequence (P08913 whole entry): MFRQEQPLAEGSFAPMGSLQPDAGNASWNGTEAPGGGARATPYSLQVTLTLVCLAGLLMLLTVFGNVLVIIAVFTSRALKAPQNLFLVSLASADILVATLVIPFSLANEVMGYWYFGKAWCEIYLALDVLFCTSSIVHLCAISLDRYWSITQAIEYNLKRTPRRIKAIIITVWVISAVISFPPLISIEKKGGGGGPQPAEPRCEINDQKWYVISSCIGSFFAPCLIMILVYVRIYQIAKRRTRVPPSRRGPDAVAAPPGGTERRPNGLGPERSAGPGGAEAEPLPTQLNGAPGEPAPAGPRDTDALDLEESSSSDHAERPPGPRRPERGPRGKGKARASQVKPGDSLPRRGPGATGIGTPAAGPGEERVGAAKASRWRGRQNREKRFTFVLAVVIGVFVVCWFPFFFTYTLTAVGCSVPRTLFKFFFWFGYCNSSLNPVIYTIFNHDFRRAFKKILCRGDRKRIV
It counts as cell membranes, Sf9, Membrane. To be noted: sf9.

For data set [5], the target named is 5-hydroxytryptamine receptor 6 (Homo sapiens, UniProt P50406). It counts as cell membranes, HeLa, Membrane. Particulars: hela. Further: in other assays of this panel Not Active means under 50% inhibition at 10 µM.
Chain of 5-hydroxytryptamine receptor 6 (P50406 whole entry): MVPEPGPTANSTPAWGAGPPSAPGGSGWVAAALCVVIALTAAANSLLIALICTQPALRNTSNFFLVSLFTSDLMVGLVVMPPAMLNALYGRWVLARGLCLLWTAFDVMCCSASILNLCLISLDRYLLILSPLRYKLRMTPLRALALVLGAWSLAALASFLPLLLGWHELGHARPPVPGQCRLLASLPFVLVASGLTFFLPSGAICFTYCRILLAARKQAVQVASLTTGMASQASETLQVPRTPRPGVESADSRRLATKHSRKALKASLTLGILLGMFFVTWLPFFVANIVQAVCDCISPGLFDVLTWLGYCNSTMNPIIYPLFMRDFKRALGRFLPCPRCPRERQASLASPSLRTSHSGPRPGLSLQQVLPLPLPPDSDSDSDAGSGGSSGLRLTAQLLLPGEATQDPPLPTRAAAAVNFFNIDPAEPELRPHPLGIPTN
The target in data set [6] is Protein phosphatase 3 catalytic subunit alpha (Homo sapiens, UniProt Q08209). Also noted: species or system Escherichia coli.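 Further: inhibition of calcineurin (PP2B) enzyme activity, measured with DiFMUP as the substrate; in other assays of this panel Not Active means under 50% inhibition at 10 µM.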
The target in data set [7] is T2, C-X-C chemokine receptor type 1 (Homo sapiens, UniProt P25024). Further: in other assays of this panel Not Active means under 50% inhibition at 10 µM.
T2 sequence (P25024 whole entry): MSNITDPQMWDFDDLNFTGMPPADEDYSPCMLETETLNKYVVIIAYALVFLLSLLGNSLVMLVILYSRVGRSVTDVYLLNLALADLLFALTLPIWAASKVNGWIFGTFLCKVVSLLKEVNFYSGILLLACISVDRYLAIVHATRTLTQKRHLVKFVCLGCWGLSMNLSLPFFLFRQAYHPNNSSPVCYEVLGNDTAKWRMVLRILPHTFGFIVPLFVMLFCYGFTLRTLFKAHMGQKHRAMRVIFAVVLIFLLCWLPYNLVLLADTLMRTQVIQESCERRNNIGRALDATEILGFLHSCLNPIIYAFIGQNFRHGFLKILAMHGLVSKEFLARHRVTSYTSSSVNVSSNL

Data set [8] can be described thus: DRUGMATRIX: Calcium Channel Type L, Phenylalkylamine radioligand binding (ligand: [3H] (-)-Desmethoxyverapamil (D-888)). In kind it is cell membranes, Rattus norvegicus, Wistar, Brain, Membrane. Particulars: Not Active = under 50% inhibition at 10 µM.
The target of data set [9] is T3, Polyunsaturated fatty acid lipoxygenase ALOX15 (Oryctolagus cuniculus, UniProt P12530).
T3 sequence (P12530 whole entry): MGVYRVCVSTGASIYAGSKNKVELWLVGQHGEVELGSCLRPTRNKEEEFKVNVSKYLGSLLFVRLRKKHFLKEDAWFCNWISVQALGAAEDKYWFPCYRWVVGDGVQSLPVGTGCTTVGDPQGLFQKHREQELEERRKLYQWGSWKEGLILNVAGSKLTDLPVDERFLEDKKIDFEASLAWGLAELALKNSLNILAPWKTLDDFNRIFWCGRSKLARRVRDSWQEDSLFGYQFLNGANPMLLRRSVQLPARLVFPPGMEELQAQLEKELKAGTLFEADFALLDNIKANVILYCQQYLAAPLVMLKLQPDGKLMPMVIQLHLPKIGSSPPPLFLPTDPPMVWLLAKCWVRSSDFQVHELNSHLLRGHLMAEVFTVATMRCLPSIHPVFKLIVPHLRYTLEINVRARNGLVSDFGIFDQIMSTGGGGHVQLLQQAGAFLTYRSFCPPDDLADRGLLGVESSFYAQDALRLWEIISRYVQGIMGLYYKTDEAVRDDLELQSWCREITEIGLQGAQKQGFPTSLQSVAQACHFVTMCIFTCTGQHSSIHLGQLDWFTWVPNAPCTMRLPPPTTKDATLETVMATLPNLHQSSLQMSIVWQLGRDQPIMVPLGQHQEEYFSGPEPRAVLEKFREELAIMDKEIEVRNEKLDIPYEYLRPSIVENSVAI
In words: biochemical. In kind it is tissue-based, Reticulocytes. Particulars: reticulocytes.

For the next data set, the target named is Cytochrome P450 2C9 (Homo sapiens, UniProt P11712). To be noted: bti-tn-5b1-4. Further: in other assays of this panel Not Active means under 50% inhibition at 10 µM.
Chain of Cytochrome P450 2C9 (P11712 whole entry): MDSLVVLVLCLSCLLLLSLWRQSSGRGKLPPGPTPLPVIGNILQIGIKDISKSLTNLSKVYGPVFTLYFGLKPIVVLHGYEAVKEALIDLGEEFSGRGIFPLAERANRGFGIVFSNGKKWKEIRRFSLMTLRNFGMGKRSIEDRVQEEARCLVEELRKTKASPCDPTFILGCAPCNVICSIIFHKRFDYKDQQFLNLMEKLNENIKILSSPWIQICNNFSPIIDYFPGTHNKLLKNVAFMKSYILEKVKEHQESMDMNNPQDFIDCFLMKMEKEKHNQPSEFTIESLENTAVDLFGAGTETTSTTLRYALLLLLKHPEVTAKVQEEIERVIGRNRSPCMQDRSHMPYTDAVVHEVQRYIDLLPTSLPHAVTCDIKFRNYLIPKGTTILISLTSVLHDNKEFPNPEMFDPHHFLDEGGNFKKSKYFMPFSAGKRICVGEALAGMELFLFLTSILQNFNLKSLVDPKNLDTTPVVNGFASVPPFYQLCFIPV
The target of the next data set is T4, Estrogen receptor (Homo sapiens, UniProt P03372). Further: in other assays of this panel Not Active means under 50% inhibition at 10 µM.
T4 sequence (P03372 whole entry): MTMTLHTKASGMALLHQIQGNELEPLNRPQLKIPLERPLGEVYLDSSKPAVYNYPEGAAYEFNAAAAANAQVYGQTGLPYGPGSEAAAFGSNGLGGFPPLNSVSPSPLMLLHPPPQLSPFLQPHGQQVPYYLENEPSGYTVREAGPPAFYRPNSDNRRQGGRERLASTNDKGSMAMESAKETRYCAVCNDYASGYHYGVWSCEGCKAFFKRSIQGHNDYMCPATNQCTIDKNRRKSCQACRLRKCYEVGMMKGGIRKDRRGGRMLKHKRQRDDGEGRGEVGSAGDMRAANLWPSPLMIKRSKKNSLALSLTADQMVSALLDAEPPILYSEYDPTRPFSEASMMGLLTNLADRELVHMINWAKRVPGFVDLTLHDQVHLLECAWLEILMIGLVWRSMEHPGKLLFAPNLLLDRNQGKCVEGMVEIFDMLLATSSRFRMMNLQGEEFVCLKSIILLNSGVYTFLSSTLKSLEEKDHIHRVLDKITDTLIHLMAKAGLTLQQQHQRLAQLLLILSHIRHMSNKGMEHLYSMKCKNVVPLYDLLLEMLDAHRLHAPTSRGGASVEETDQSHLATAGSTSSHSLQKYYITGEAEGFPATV
To be noted: sf9.

The nature of data set [10]: DRUGMATRIX: Serotonin (5-Hydroxytryptamine) 5-HT3 radioligand binding (ligand: [3H] GR-65630). It counts as cell membranes, Membrane. Particulars: hek293; Not Active = under 50% inhibition at 10 µM.
In another data set the target is Melanocortin receptor 5 (Homo sapiens, UniProt P33032). It counts as cell membranes, HEK293, Membrane. Particulars: hek293. Further: in other assays of this panel Not Active means under 50% inhibition at 10 µM.
Chain of Melanocortin receptor 5 (P33032 whole entry): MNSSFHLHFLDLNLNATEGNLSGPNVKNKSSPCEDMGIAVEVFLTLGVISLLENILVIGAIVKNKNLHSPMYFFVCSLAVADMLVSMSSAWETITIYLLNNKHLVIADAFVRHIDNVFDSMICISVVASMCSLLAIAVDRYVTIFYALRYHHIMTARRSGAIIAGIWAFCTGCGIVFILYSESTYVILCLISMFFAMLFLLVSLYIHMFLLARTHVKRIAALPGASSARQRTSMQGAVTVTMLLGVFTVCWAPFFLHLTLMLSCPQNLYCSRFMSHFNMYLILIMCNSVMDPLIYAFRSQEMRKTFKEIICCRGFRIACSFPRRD
The target of the next data set is Melanocortin receptor 3 (Homo sapiens, UniProt P41968). It counts as cell membranes, Membrane. To be noted: hek293. Further: in other assays of this panel Not Active means under 50% inhibition at 10 µM.
Chain of Melanocortin receptor 3 (P41968 whole entry): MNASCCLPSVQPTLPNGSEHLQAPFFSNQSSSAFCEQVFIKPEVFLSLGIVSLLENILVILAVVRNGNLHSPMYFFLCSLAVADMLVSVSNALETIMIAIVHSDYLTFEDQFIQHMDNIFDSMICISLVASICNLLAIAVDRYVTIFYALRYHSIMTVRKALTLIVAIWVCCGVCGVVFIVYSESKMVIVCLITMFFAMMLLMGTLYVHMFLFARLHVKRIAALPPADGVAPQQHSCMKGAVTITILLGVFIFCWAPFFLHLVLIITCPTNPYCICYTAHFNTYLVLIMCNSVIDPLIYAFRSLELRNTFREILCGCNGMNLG

Chain of C-C chemokine receptor type 5 (P51681 whole entry): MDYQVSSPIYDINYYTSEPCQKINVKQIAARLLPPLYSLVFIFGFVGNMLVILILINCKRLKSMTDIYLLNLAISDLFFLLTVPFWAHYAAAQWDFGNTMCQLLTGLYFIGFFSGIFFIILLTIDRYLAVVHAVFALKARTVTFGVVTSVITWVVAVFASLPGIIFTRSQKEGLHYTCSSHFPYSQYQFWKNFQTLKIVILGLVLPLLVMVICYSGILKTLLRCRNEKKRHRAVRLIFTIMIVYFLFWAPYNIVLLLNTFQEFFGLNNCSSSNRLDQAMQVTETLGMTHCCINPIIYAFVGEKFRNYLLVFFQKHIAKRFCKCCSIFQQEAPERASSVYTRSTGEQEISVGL

Consider `CN(C)CCCC1(c2ccc(F)cc2)OCc2cc(C#N)ccc21` (configuration not stated) [CITALOPRAM], for which the IC50 result in data set [1], in data set [2], in data set [3], in data set [4], in data set [5] and in [6] was “Not Active” throughout. Further, the IC50 entry in [7] is “Not Active”; in data set [8] (read-out: IC50) it was 1.02 µM; in data set [9] it was “Not Active”; against Cytochrome P450 2C9 it was “Not Active”; against Estrogen receptor, “Not Active”; in data set [10], “Not Active”. Further, the IC50 entry at Melanocortin receptor 5 and against Melanocortin receptor 3 was “Not Active” throughout. Further, the Ki result was “Not Active” in [1], 0.996 µM in data set [8] (read-out: Ki), “Not Active” at Cytochrome P450 2C9 and “Not Active” in [10].

As for `COC(=O)[C@H](c1ccccc1Cl)N1CCc2sccc2C1` [CLOPIDOGREL], the IC50 entry in [1], in data set [2], in data set [3], in data set [4], in [5] and in data set [6] was “Not Active” each time. The IC50 result (in data set [7]; in data set [8]; in [9]; against Cytochrome P450 2C9; against Estrogen receptor; in [10]) was “Not Active” throughout. Also, the IC50 entry at Melanocortin receptor 5 and on Melanocortin receptor 3 was “Not Active” each time. Also, the Ki result (in [1]; in data set [8]; on Cytochrome P450 2C9; in data set [10]) was “Not Active” each time.

On to `C[C@]12CCC(=O)C=C1CC[C@@H]1[C@@H]2C(=O)C[C@@]2(C)[C@H]1CC[C@]2(O)C(=O)CO` [CORTISONE], for which the IC50 entry in [1], in data set [2], in data set [3], in [4], in data set [5] and in [6] was “Not Active” in each case. Besides, the IC50 result (in data set [7]; in data set [8]; in data set [9]; against Cytochrome P450 2C9; at Estrogen receptor; in data set [10]) was “Not Active” throughout. Also, the IC50 result on Melanocortin receptor 5 and at Melanocortin receptor 3 was “Not Active” each time. For the same compound, the Ki entry (in [1]; in [8]; at Cytochrome P450 2C9; in data set [10]) was “Not Active” throughout.

On to `CC1=Nc2ccc(Cl)cc2S(=O)(=O)N1` [DIAZOXIDE], for which the IC50 result in data set [1], in [2], in data set [3], in [4], in data set [5] and in [6] was “Not Active” in each case. Moreover, the IC50 result (in data set [7]; in data set [8]; in data set [9]; at Cytochrome P450 2C9; against Estrogen receptor; in data set [10]) was “Not Active” each time. Besides, the IC50 result on Melanocortin receptor 5 and at Melanocortin receptor 3 was “Not Active” each time. Moreover, the Ki entry (in data set [1]; in data set [8]; at Cytochrome P450 2C9; in data set [10]) was “Not Active” each time.

The term IC50 denotes the concentration that inhibits the measured activity by half. The Ki is the dissociation constant of the complex between target and ligand, obtained from inhibition or displacement.
